Bounds are passed on as bounds.

Data set [1] is described as follows: log P determination by LC-MS in the acidic range (HCOOH). Type of data set: physicochemical. To be noted: LC-MS column with aqueous formic acid/acetonitrile gradient, pH 2.7, 0.1% aqueous formic acid and acetonitrile. As for the experimental part: The LC-MS determination in the acidic range is carried out at pH 2.7 using 0.1% aqueous formic acid and acetonitrile (contains 0.1% formic acid) as mobile phases; linear gradient from 10% acetonitrile to 95% acetonitrile.
Calibration is carried out using unbranched alkan-2-ones (with 3 to 16 carbon atoms) with known log P values (determination of the log P values by the retention times using linear interpolation between two successive alkanones).

Data set [2] concerns green peach aphid (Myzus persicae). Put plainly: Myzus test (MVZUPE spray treatment). It is filed as in vivo. The settings on record: after 6 days, Chinese cabbage leaf discs. As for the experimental part:
(§1) To produce a suitable preparation of active compound, one part by weight of active compound is mixed with the stated amounts of solvents and emulsifier, and the concentrate is diluted with emulsifier-containing water to the desired concentration.
Discs of Chinese cabbage leaves (Brassica pekinensis) which are infested by all stages of the green peach aphid (Myzus persicae) are sprayed with an active compound preparation of the desired concentration.
(§2) After 6 days, the effect in percent is determined. 100% means that all aphids have been killed; 0% means that none of the aphids have been killed.

Data set [3] has as its system larvae of the mustard beetle (Phaedon cochleariae). Put plainly: Phaedon test (PHAECO spray treatment). It is filed as in vivo. The settings on record: application rate 500 g/ha, after 7 days, Chinese cabbage leaf discs. How it is done:
[table] To produce a suitable preparation of active compound, one part by weight of active compound is mixed with the stated amounts of solvents and emulsifier, and the concentrate is diluted with emulsifier-containing water to the desired concentration. Discs of Chinese cabbage leaves (Brassica pekinensis) are sprayed with an active compound preparation of the desired concentration and, after drying, populated with larvae of the mustard beetle (Phaedon cochleariae).

Data set [4] has as its system caterpillars of the armyworm (Spodoptera frugiperda). Briefly: Spodoptera frugiperda test (SPODFR spray treatment). It is filed as in vivo. The settings on record: after 6 days, maize leaf discs. How it is done: as §1
Discs of maize leaves (Zea mays) are sprayed with an active compound preparation of the desired concentration and, after drying, populated with caterpillars of the armyworm (Spodoptera frugiperda).
as §2

For orientation: chromatographic logP means a lipophilicity value derived from retention on a column. In the case of `CON1CCC2(CC1)OC(=O)C(c1c(C)cc(C)cc1C)=C2O` [I-a-1], the chromatographic logP in data set [1] came out at 2.15.

With `CCc1cc(C)cc(C)c1C1=C(O)C2(CCN(OC)CC2)OC1=O` [I-a-3], the “activity (aphids killed)” value in data set [2] (application rate 500 g/ha) was determined as 100%.

With `CON1CCC2(CC1)OC(=O)C(c1cc(-c3ccc(Cl)cc3)ccc1C)=C2O` [I-a-4], the “activity (beetle larvae killed)” value in data set [3] stood at 100%. For the same compound, in data set [2] (application rate 500 g/ha), the “activity (aphids killed)” value is reported as 100%. With `CON1CCC2(CC1)OC(=O)C(c1c(C)ccc(-c3ccc(Cl)cc3)c1C)=C2O` [I-a-5], the “activity (killed)” value in data set [4] (application rate 500 g/ha) is at least 80%. Further, the “activity (aphids killed)” value in data set [2] (application rate 100 g/ha) stood at 100%.

`CCc1cc(-c2ccc(Cl)cc2)cc(C)c1C1=C(O)C2(CCN(OC)CC2)OC1=O` [I-a-6]: the “activity (beetle larvae killed)” value in data set [3] is 100%.

Regarding `CCON1CCC2(CC1)OC(=O)C(c1c(C)cc(C)cc1C)=C2O` [I-a-7], the “activity (aphids killed)” value in data set [2] (application rate 500 g/ha) was found to be 100%. Take `CON1CCC2(CC1)OC(=O)C(c1c(C)ccc(-c3ccc(F)cc3)c1C)=C2O` [I-a-9]: the “activity (aphids killed)” value in data set [2] (application rate 500 g/ha) is listed as 100%. For `CCc1cc(C)cc(CC)c1C1=C(O)C2(CCN(OC)CC2)OC1=O` [I-a-10], the “activity (aphids killed)” value in data set [2] (application rate 500 g/ha) was 100%. The same measure, in the same setting: next, `CCON1CCC2(CC1)OC(=O)C(c1c(CC)cc(C)cc1CC)=C2O` [I-a-11]: 100%. Regarding `CCON1CCC2(CC1)OC(=O)C(c1c(C)ccc(-c3ccc(Cl)cc3)c1C)=C2O` [I-a-12], the “activity (killed)” value in data set [4] (application rate 100 g/ha) was at least 100%. Besides, in data set [2] (application rate 500 g/ha), the “activity (aphids killed)” value was found to be 100%. Consider `CCON1CCC2(CC1)OC(=O)C(c1cc(-c3ccc(Cl)cc3)ccc1C)=C2O` [I-a-13], for which the “activity (beetle larvae killed)” value in data set [3] amounted to 100%. For the same compound, in data set [2] (application rate 500 g/ha), the “activity (aphids killed)” value was 100%. The compound `CCOC(=O)C1(OC(=O)Cc2c(C)cc(C)cc2C)CCN(OC)CC1` [II-1] returned a chromatographic logP in data set [1] of 4.28.

Compound `CCOC(=O)C1(O)CCN(OC)CC1` [XIV-1] registered a chromatographic logP in data set [1] of 0.94. On to `CCOC(=O)C1(O)CCN(OCC)CC1` [XIV-2], for which the chromatographic logP in data set [1] came out at 1.16.

The record behind these values is US8592610B2, “Spiroheterocyclic tetronic acid derivatives” (Bayer CropScience AG, priority 2009, dated 2013).
